The values that follow come from patent USRE42961E1, “Use of autonomic nervous system neurotransmitters inhibition and atrial parasympathetic fibers ablation for the treatment of atrial arrhythmias and to preserve drug effects” (St. Jude Medical, Atrial Fibrillation Division, Inc., priority 2000, dated 2011).

One test has as its system atrial flutter circuit. In words: Canine Y-shaped lesion model of sustained stable atrial flutter; reset-response measurement of cycle length, refractory period and excitable gap during neurotransmitter infusion with or without sotalol. The class given is in vivo, dog. The method, then: In a group of 13 open chest anaesthetised dogs, atrial flutter model was produced during baseline conditions around the tricuspid valve using a Y-shaped lesion in the intercaval area extending to the right atrial appendage. Atrial flutter was induced at the shortest effective refractory period site using fast pacing stimulation (S1S1) of 100-150 ms. This manoeuvre was repeated as much as necessary with more damage in the Y-shaped lesion model to achieve a sustained stable atrial flutter (>10 min) during the baseline conditions. In order to determine the excitable gap duration and composition during this sustained and stable atrial flutter, a diastole was scanned with a single premature extrastimulus, S1S2 (S1S2=]refractory period, flutter cycle length[) to define the atrial flutter circuit composition and duration (flutter cycle length=refractory period+excitable gap). Atrial flutter cycle length, atrial effective refractory period and duration of the excitable gap were then determined. Measures were repeated during a constant infusion into the right coronary artery of norepinephrine (15 μg/min) and acetylcholine (2 μg/min) allowing 15 min for recovery from norepinephrine effects. The effects of norepinephrine and acetylcholine at a constant plasma level of d-sotalol or d,l-sotalol (0.8 mg/kg+0.4 mg/kg/hr) were also studied in 2 different groups of chloralose anaesthetised dogs on the same electrophysiological parameters described above.
Atrial Flutter protocol: All experiments described were in accordance with institutional guidelines for animal experimentation. Fourteen mongrel dogs of either sex, weight 29-45 kg, were studied in the post-absorptive state. General anaesthesia was induced with sodium thiopental (25 mg/kg iv.) and maintained with chloralose (80 mg/kg iv. bolus supplemented by 20 mg/kg/hr maximum as needed). The dogs were intubated and ventilated (Harvard pump) with room air (10 breaths/min, tidal volume to achieve a maximum inspiratory pressure of 20 cm water) to maintain arterial pH 7.35-7.45 and PaO2>80 mm Hg. Arterial and venous cannulae were inserted in the left femoral artery and vein by direct cut down for blood pressure monitoring and drug administration, respectively. An additional venous cannulae was inserted in the right femoral vein or in the right internal jugular vein for blood sampling. Muscular relaxation was then induced with gallamine triethiodide (Flaxedil 100) 3 mg/kg intravenously. A right thoracotomy was performed via the fourth or fifth intercostal space and the pericardium was incised to provide access to the vena cava and the right atrium. […] A second line, extending from the first two-thirds of the way toward the tip of the right atrial appendage and parallel to 1-2 cm above the atrioventricular groove, was similarly incised and sewn over. Five close (2-4 mm) bipolar epicardial silver electrodes (insulated except at the tip) for stimulating and/or recording were sewn around the base of the right atrium within 1 cm of the tricuspid annulus. Three were positioned on the anterior surface and two on the posterior surface (Derakhchan K, et al., 1994). An arterial cannula was inserted in the right coronary artery for neurotransmitter infusion.
Measurement of electrophysiologic parameters: A single lead (II) surface electrocardiogram, atrial electrograms from each of the 5 bipolar electrodes, and the femoral arterial pressure were monitored and recorded using a Nihon Kohden polygraph (Model RM6008). Data were also stored on a Hewlett-Packard tape recorder. Atrial flutter was induced by burst stimulation (20-30 beats at basic cycle length <100 ms). During stable flutter (cycle length variation <10 ms), a premature stimulus was introduced at the site located on this re-entry circuit after every 20th spontaneous beat (T) in 2 ms decrements beginning at coupling intervals equal to the cycle length of this atrial tachycardia. […]

Another test relates to atrial flutter. Particulars: intravenous atropine and propranolol together; supine or upright position; cited from earlier work.
A further test deals with atrial fibrillation. Description: Canine atrial fibrillation model with vagal and stellar ganglion denervation/stimulation (ERP duration and dispersion, conduction velocity, wavelength, AF duration). The class given is in vivo, dog. Particulars: vagal stimulation in the presence of class III drug therapy. The source says: In a group of 14 anaesthetised open chest dogs, atrial fibrillation was induced by fast pacing and up to 10 attempts of arrhythmia initiations during baseline condition, vagal denervation, right and left vagal stimulation #1 (1 Hz, 0.1 ms), right and left stellar ganglions denervation, right and left vagal stimulation #2 (1 Hz, 0.1 ms), right and left stellar ganglions stimulation (10 Hz, 2 ms), and right and left vagal stimulation (1 Hz, 0.1 ms) associated with right and left stellar ganglions stimulation (10 Hz, 2 ms). Under the same conditions described above, the effective refractory period duration and dispersion (at S1S1=200 ms), the conduction velocity and the wavelength are determined. Atrial fibrillation occurrence was evaluated by the mean duration of 10 atrial fibrillation episodes at baseline (for a group of animals when none of the 10 atrial fibrillation episodes at baseline were lasting more than 3 minutes) and following each of the conditions described above. […]
Activation Mapping: Five thin plastic sheets containing 112 bipolar electrodes with 1 mm interpolar and 6 mm interelectrode distances were sewn into position on atrial epicardial surface. […] Each electrogram was analyzed with computer-determined peak-amplitude criteria and was reviewed manually. […] Isochrone maps and activation times for each activation were recorded by the use of IBM ink jet printer. […]

Test [1] concerns common human atrial flutter. Particulars: cited from earlier work.
The mark [2] stands for this setting: d,l-sotalol group, 7 dogs, NE 15 μg/min, ACh 2 μg/min into right coronary artery, d,l-sotalol 0.8 mg/kg+0.4 mg/kg/hr.
[3] abbreviates: d-sotalol group, 6 dogs, NE 15 μg/min, ACh 2 μg/min into right coronary artery, d-sotalol 0.8 mg/kg+0.4 mg/kg/hr.

“And” between values parts separate entries of the source, which are not always exact repeats. Equal values may be shown once.

On to `CC(=O)OCC[N+](C)(C)C` [ACh, acetylcholine], for which, in the test with atrial flutter circuit (setting [2]), the “Atrial Effective Refractory Period (AERP), mean” value is 64 ± 4 ms and 63.6000 ms and 63.6 ms; the “Atrial Flutter Cycle Length (AF1CL), mean” value is 119 ± 17 ms and 119.0000 ms and 119.0 ms. In the test on atrial flutter circuit (setting [3]), the “Atrial Flutter Cycle Length (AF1CL), mean” value was 123 ± 15 ms and 122.6667 ms and 122.7 ms; the “Effective Refractory Period duration (ERPdur), mean” value was 65 ± 5 ms and 64.8000 ms and 64.8 ms; the “Excitable Gap duration (EGdur), mean” value was 48 ± 16 ms and 47.6000 ms and 47.6 ms.

In the case of `CC(C)NCC(O)COc1cccc2ccccc12` (stereo not shown) [propranolol], the “effect on atrial flutter cycle length” value with atrial flutter is recorded as “did not change”.

Consider `NC[C@H](O)c1ccc(O)c(O)c1` [NE, norepinephrine], for which, in the test with atrial flutter circuit (setting [2]), the “Atrial Effective Refractory Period (AERP), mean” value is 93 ± 7 ms and 93.0000 ms and 93.0 ms; the “Atrial Flutter Cycle Length (AF1CL), mean” value was 132 ± 8 ms and 131.7500 ms and 131.8 ms. For the same compound, in the test with atrial flutter circuit (setting [3]), the “Atrial Flutter Cycle Length (AF1CL), mean” value is 133 ± 12 ms and 133.0000 ms and 133.0 ms. In the test with atrial flutter circuit (in the presence of d-sotalol), the “reversal of d-sotalol effects on atrial flutter cycle length and effective refractory period duration” value is listed as “significantly reversed”. Also, the “effect on effective refractory period duration” value in the test on atrial flutter circuit (infusion alone, d-sotalol group, 6 animals) was “significantly shortened”. The “occurrence of the initiation of atrial flutter” value in the test on atrial flutter circuit (neurotransmitter infusion, acetylcholine>>norepinephrine) is listed as “significantly increased”.

Regarding `CC(C)NCC(O)c1ccc(NS(C)(=O)=O)cc1` (racemic) [d,1-S, d,l-Sotalol], in the test with atrial flutter circuit (setting [2]), the “Atrial Flutter Cycle Length (AF1CL), mean” value was 143.0 ms. Moreover, the “antiarrhythmic therapeutic effects under vagal stimulation” value in the test with atrial fibrillation is “significantly and markedly reversed”.

Turning to `CN1[C@@H]2CC[C@H]1C[C@@H](OC(=O)C(CO)c1ccccc1)C2` (stereo partly shown) [atropine], in the test with atrial flutter, the “effect on atrial flutter cycle length” value is listed as “did not change”.

On to `CC[N+](C)(C)c1cccc(O)c1` [edrophonium], for which the “effect on monophasic atrial action potential duration or atrial flutter cycle length” value in test [1] is reported as “no significant effect”.
